# Target: hADORA1/CHO (hA1 expressing) cells (Homo sapiens (Human), UniProt P30542)
# Assay: FLIPR calcium inhibition assay in hADORA1/CHO (hA1 expressing) cells, 10 M adenosine
# Assay type: cell-based
# Settings: read-out: cAMP & FLIPR IC50 (nM) hA1
# Experimental: hADORA1/CHO (hA1 expressing) cells (Genscript) were plated at 1×10^4 cells/well into 384-well polystyrene plates one day before starting the experiment. On the day of experiment, the supernatant was discard and replaced with 40 μL of dye (FLIPR calcium 5 Assay Kit) per well and the plates were incubated for 60 mins at 37° C. plus 5% CO2. Then testing compounds were added at different concentrations for FLIPR™ inhibition assay. After a 400 s incubation with compound, […] adenosine was added into the cells, and the signal was captured by FLIPR.
# Chain of hADORA1/CHO (hA1 expressing) cells (P30542 whole entry): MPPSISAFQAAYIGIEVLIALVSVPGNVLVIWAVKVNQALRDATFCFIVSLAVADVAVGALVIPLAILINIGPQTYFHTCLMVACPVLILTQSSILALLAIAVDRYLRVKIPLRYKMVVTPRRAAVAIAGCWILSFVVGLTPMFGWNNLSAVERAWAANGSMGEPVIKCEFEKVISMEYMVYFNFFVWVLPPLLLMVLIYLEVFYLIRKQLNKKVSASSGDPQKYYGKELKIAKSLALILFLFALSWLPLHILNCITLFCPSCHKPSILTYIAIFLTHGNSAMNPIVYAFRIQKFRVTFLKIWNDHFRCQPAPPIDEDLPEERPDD
structure (smiles),measurement,value
"Cc1cnc2ccc(-c3nc(C(=O)NCC4CCCCN4C)c(N)nc3-c3ncco3)cn12 (single isomer, unassigned; isomer 2) [Example 125, 3-amino-6-(3-methylimidazo[1,2-a]pyridin-6-yl)-N-((1-methylpiperidin-2-yl)methyl)-5-(oxazol-2-yl)pyrazine-2-carboxamide (isomer 2)]",IC50,10000 nM
